# Assay results: ChEMBL document CHEMBL4334483, “STING modulators: Predictive significance in drug discovery” (Eur J Med Chem, 2019)
# Columns and labels:
# [1] = Inhibition of STING R232 mutant in mouse MEF cells assessed as increase in IFNbeta secretion
# [2] = species on record: Homo sapiens; assay: Selectivity index, ratio of EC50(app) for TBK1 in human PBMC […] in human PBMC
# [3] = target: T1, Serine/threonine-protein kinase TBK1 (Homo sapiens, UniProt Q9UHD2); assay: Induction of TBK1 in human PBMC assessed as increase in […]
# T1 sequence (Q9UHD2 whole entry): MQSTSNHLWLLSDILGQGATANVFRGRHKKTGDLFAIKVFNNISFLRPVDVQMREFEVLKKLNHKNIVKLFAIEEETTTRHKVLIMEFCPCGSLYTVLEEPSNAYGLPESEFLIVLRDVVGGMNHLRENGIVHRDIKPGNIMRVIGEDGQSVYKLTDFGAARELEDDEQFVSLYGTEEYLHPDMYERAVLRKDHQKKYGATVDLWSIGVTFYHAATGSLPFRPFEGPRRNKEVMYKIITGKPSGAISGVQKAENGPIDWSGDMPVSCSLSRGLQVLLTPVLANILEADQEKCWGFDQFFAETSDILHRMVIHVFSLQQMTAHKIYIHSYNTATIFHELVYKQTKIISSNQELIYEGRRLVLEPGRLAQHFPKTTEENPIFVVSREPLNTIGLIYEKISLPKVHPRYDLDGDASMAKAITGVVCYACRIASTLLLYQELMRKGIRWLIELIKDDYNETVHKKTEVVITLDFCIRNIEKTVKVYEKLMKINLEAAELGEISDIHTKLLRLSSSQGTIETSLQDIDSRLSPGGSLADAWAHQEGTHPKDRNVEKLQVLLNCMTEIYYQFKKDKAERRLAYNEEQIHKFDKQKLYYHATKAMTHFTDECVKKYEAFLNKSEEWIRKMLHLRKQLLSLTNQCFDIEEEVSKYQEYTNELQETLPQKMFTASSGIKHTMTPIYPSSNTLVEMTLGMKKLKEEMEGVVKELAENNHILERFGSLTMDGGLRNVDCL
# [4] = target: Stimulator of interferon genes protein (Homo sapiens, UniProt Q86WV6); assay: Induction of STING in human PBMC assessed as increase in IFNbeta secretion
# Chain of Stimulator of interferon genes protein (Q86WV6 whole entry): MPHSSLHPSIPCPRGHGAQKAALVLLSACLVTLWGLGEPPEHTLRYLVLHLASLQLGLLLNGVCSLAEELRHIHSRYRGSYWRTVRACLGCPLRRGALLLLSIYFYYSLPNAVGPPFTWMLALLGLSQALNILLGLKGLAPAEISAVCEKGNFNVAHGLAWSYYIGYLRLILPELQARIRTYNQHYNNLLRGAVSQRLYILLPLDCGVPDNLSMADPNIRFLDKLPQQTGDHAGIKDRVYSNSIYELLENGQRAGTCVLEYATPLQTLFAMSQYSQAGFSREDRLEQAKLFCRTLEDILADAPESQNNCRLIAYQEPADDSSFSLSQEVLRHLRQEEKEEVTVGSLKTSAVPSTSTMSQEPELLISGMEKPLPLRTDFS
compound,measurement,setting,value
CC[C@@H]1NC(=O)[C@@H]2[C@H](Cl)[C@H](Cl)CN2C(=O)[C@H](CC)NC(=O)C[C@H](c2ccccc2)NC(=O)[C@H](CO)NC1=O,IC50,[1],3.42 µM
CCn1nc(C)cc1C(=O)/N=c1\[nH]c2cc(C(N)=O)ccc2n1CCCCn1/c(=N/C(=O)c2cc(C)nn2CC)[nH]c2cc(C(N)=O)ccc21,Ratio EC50,[2],18
CCn1nc(C)cc1C(=O)Nc1nc2cc(C(N)=O)ccc2n1CCCCn1c(NC(=O)c2cc(C)nn2CC)nc2cc(C(N)=O)ccc21,EC50,[3],53.9 µM
same,EC50,[4],3.1 µM
